Reference: patent US12208105B2, “Methods for attenuating graft-versus-host disease and opportunistic infections” (priority 2018, dated 2025)

Legend:
Cytotoxicity (Table 1) = assay type: cell-based
Excerpt: Perhaps the most important goal of HSCT research is to separate the beneficial anti-tumor effects mediated by donor T cells from the deleterious GVHD responses that they are also capable of producing. […] Unfortunately, there were no drugs or therapeutic antibodies available for clinical use. As a result, we pursued our high throughput screening (HTS) effort to identify novel small molecule antagonists with anti-CCR7 activity. The initial drug discovery process identified cosalane as a CCR7 antagonist. A substantial amount of work has subsequently been done with the compound in an effort to prevent acute graft-versus-host disease in mouse bone marrow transplant models.

B6 into B6D2 aGVHD model = test: aGVHD, B6 into B6D2 transplant, cosalane dosed systemically; assay type: in vivo, mouse
Procedure: Transplantation Procedures: Recipient mice were irradiated on transplant day −1. Recipients were then administered T cell depleted (TCD) bone marrow cells +/−CD25^− column-purified conventional T cells (Tcons) to induce aGVHD as previously described (Wysocki et al., J. Immunol. 173:845 (2004); Carlson et al., Blood 113:1365 (2009)). Tcons consisted of CD4^+ and CD8^+ T cells in a 1:1 ratio. For ex-vivo cosalane incubations, cell populations were suspended in serum/protein free injectable saline unless otherwise indicated. […] The cells were then administered immediately to recipients by tail vein injection.

[1] = tested on: donor (eGFP+) cells in the spleen; test: Donor engraftment in host spleen by flow cytometry; assay type: in vivo, mouse; settings: whole stem cell product incubated 15 μg/ml, transplant day +10
Procedure: Purified Tcons and TCD BM cells were obtained from B6 donors transgenic for enhanced green fluorescent protein (eGFP^+) and were mixed together prior to being incubated with cosalane or DMSO. The cells were subsequently administered to irradiated B6D2 recipients and both bone marrow and Tcon engraftment then determined by flow cytometry within the host spleen on transplant day +10. Donor derived cells were distinguished from residual host cells by virtue of their eGFP positivity.

Epstein Barr virus (EBV) = assay type: cell-based, human
serum albumin = serum albumin (Homo sapiens, UniProt P02768); settings: cited from earlier work
[2] = tested on: herpes simplex 1 and 2 and human cytomegalovirus; settings: cited from earlier work
[3] = in vitro, previous reports; cited from earlier work
[4] = tested on: CCR7-/- B6 into BALB/c aGVHD model; test: aGVHD induced with CCR7-/- B6 Tcons into BALB/c
Procedure: (A, B) BALB/c mice were lethally irradiated on transplant day −1. On day 0 recipients were administered 5×10^6 TCD B6 BM cells +/−3×10^6 CCR7^−/− B6 Tcons. Donor Tcons were incubated ex vivo with DMSO vehicle or cosalane diluted in normal saline at 15 μg/ml. The cells were then mixed with untreated TCD B6 BM cells and administered immediately to recipient mice by tail vein injection. Mice were then followed for survival and scored for aGVHD. N=2 BM only. N=6 for all other treatment groups. […] (C, D) BALB/c mice were transplanted as in A, B. Donor CCR7^−/− B6 Tcons, however, were incubated ex vivo with DMSO vehicle or cosalane diluted in normal saline at 30 μg/ml. N=2 BM only. N=9 for all other treatment groups.
As a result, we repeated our CCR7^−/− B6 into BALB/c transplant but pre-incubated the donor Tcons with an identical cosalane strength of 30 μg/ml.

TNF and IFN-γ = test: Organ inflammatory cytokines by ELISA after HSCT; settings: day +14
Procedure: (A, B) B6D2 mice were lethally irradiated on transplant day −1. On day 0 recipients were administered 3×10^6 TCD B6 BM cells +/−4×10^6 B6 Tcons. Donor TCD BM cells, donor Tcons, both cell populations, or neither were incubated ex vivo with cosalane at 15 μg/ml for one hour prior to transplant. Those cells not treated with cosalane were incubated with an equal volume of DMSO vehicle. Mice were then followed for survival and scored for aGVHD. N=2 BM only. N=5 for all other treatment groups. […] (C, D) B6D2 mice were lethally irradiated on transplant day −1. On day 0 recipients were administered 3×10^6 TCD eGFP^− B6 BM cells plus 4×10^6 eGFP^+ B6 Tcons. Donor Tcons were incubated ex vivo with DMSO vehicle or cosalane diluted in normal saline at 15 μg/ml. The cells were then mixed with untreated TCD B6 BM cells and administered immediately to recipient mice by tail vein injection. Recipient mice were subsequently killed on day +7 (C) or day +14 (D). Lymphoid organs (left panels) and aGVHD target organs (right panels) were subsequently harvested and homogenized. Total eGFP levels were then determined using an anti-eGFP ELISA. N=7 per treatment group. […] (E, F) B6D2 mice were transplanted as in (C, D) and their organs removed and homogenized on day +7 (E) or day +14 (F). Total IFN-y (left panels) and TNF (right panels) was then determined by ELISA. N=7 per treatment group.

[5] = tested on: P815 murine mastocytoma cells; test: P815 graft-versus-leukemia model with in vivo imaging
Procedure: B6D2 mice were lethally irradiated on transplant day −1. On day 0 recipients were administered 3×10^6 TCD B6 BM cells and 2.5×10^4 luciferase^+ P815 murine mastocytoma cells (H-2^d)+/−4×10^6 B6 Tcons. Donor Tcons were incubated ex vivo with DMSO vehicle or cosalane diluted in normal saline at 15 μg/ml. The cells were then mixed with untreated BM/tumor cells and administered immediately to recipient mice by tail vein injection. Mice were then serially imaged twice weekly following the intraperitoneal injection of luciferin. […] Recipient mortality was attributed to tumor versus aGVHD based on the tumor burden by imaging and clinical aGVHD scores at the time of death. Exposure time=4 seconds for all panels. N=5 per treatment group.
B6D2 mice were lethally irradiated on transplant day −1. On day 0 recipients were administered 3×10^6 TCD B6 BM cells and 2.5×10^4 luciferase^+ P815 murine mastocytoma cells. Some recipients also received 2×10^6 DMSO treated B6 Tcons or 4×10^6 cosalane treated B6 Tcons (15 μg/ml). Mice were then serially imaged twice weekly following the intraperitoneal injection of luciferin. […] Exposure time=4 seconds for all panels. The “mixed” cage on the far right contained one mouse each of the BM/P815 only, BM/P815 plus DMSO Tcons, and BM/P815 plus cosalane Tcons groups. N=6 per treatment group.
P815 graft-versus-leukemia model and in vivo imaging: Luciferase transfected P815 murine mastocytoma cells (H-2^d) were a kind gift from the laboratory of Dr. Jonathan Serody. P815 cells were cultured and then mixed with TCD bone marrow cells prior to transplantation. A tumor dose of 2.5×10^4 P815 cells was used for all experiments. Recipients were then serially imaged using an IVIS Kinetic Optical real-time imaging system to monitor for in vivo tumor growth twice weekly. For imaging, recipients were dosed with 3 mg of D-luciferin (Perkin Elmer) by intraperitoneal injection 10 minutes prior to the procedure. Mice were then anesthetized with isoflurane during image acquisition. Unless otherwise indicated an exposure time of 4 seconds was used for all images.
As a result, we evaluated cosalane's effects on GVL immunity using a well described P815 murine mastoma (H-2^d) leukemia model. Here, B6D2 mice were lethally irradiated and then administered 3×10^6 TCD B6 bone marrow cells containing 25,000 luciferase transfected P815 cells +/−4×10^6 B6 Tcons to drive a GVL response. One half of those mice receiving BM/Tumor plus Tcons were administered Tcons incubated with DMSO and the other one half received cosalane treated Tcons. Recipients were subsequently evaluated by serial in vivo imaging in order to monitor tumor growth in each treatment group. […]

CCR7 = biological target: T1, CCR7 (Homo sapiens, UniProt P32248); test: Trans-well chemotaxis assay, human H9 cells; assay type: cell-based; set-up: confirm that hits identified in the HTS were active against native CCR7; endogenous in cells; host or cells: H9 cells (human cutaneous T cell lymphoma line)
T1 sequence (P32248 25-378): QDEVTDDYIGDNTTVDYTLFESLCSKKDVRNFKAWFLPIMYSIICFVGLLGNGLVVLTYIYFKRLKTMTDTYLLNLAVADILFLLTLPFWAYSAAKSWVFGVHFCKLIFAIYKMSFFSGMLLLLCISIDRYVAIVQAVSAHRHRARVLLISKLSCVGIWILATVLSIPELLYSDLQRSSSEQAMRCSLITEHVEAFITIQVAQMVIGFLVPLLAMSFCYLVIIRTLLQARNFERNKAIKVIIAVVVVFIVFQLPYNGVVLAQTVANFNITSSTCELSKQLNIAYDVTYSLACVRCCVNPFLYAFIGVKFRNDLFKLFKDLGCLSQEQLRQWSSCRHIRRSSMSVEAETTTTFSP
Procedure: FIGS. 1A-1D show cosalane impairs CCR7 driven human and murine chemotaxis. (A, B) Chemotaxis media with or without CCL19 (A) or CCL21 (B) was added to the lower chambers of the chemotaxis device. Previously untreated H9 cells were then placed in the upper chambers of the device with or without cosalane at a concentration of 2 μM. The chamber was then placed at 37° C. for 3.5 hours and total H9 migration from each upper to lower chamber determined. (A) *P=0.048 for comparison between H9 cells/30 nM CCL19 and H9 cells/30 nM CCL19/2 μM cosalane by Student's t test. (B) P>0.05 for comparison between H9 cells/200 nM CCL21 and H9 cells/200 nM CCL21/2 μM cosalane. (C, D) Chemotaxis media with or without CCL19 (C) or CCL21 (D) was added to the lower chambers of the chemotaxis device. Previously untreated primary murine T cells were then placed in the upper chambers of the device with or without cosalane at a concentration of 2 μM. Total T cell migration from each upper to lower chamber was then determined. (C) *P=0.029. (D) *P<0.001.
While useful from a screening perspective, our primary reporter assays for the HTS were not physiologic. As a result, it was important to confirm that hits identified in the HTS were active against native CCR7 and could block an actual function mediated by the receptor. For this, we used a well-described trans-well chemotaxis assay system using human H9 cells, a cutaneous T cell lymphoma line known to express high levels of CCR7 and to migrate in response to its ligands (Ott et al., J. Pharmacol. Toxicol. Meth. 51:105 (2005)). In addition, we utilized primary mouse, naïve (CD25^neg) T cells obtained from C57BL/6 mice. As depicted in FIG. 1A, human H9 cells placed in the upper chambers of the chemotaxis device readily migrated through the separating membrane when CCL19 was present in the lower chamber. […] Similarly, murine T cell chemotaxis was also impaired by cosalane in response to both CCL19 and CCL21 (FIGS. 1C-1D).
To evaluate this possibility, human H9 cells were incubated with 10 mcg/ml (13 μM) of cosalane versus DMSO vehicle for one hour and then washed free of the compound. The cells were then placed into the chemotaxis chamber as was done in FIGS. 1A-1D. […] Similar experiments were performed with naïve primary mouse T cells.

[6] = 4×10^6 Tcons incubated 15 μg/ml
[7] = 4×10^6 cosalane treated Tcons vs 2×10^6 DMSO Tcons
[8] = 10 mcg/ml (13 μM) one hour, then washed

Sequence of serum albumin (P02768 25-609): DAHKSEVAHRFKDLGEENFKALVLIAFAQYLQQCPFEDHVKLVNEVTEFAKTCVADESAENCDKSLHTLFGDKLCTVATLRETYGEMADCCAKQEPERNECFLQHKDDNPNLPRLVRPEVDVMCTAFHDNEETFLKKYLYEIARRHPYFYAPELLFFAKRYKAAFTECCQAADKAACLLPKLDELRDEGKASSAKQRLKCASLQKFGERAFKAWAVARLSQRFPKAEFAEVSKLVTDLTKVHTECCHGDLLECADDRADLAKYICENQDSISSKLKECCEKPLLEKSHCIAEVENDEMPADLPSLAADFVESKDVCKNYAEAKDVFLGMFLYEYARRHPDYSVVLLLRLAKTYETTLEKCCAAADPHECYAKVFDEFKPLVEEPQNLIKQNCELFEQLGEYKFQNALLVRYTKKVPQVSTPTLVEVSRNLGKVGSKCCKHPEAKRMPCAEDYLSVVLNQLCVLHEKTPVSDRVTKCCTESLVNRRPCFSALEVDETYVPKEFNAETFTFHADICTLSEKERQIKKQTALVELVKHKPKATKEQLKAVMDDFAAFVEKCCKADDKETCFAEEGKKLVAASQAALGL

CC(C)CCC[C@@H](C)[C@H]1CC[C@H]2[C@@H]3CC[C@H]4C[C@@H](CCC=C(c5cc(Cl)c(O)c(C(=O)O)c5)c5cc(Cl)c(O)c(C(=O)O)c5)CC[C@]4(C)[C@H]3CC[C@]12C [Cosalane, cosalane]
Cytotoxicity (Cytotoxicity (Table 1)): >50 (non-toxic) μM | aGVHD (survival and scores) with systemic dosing (B6 into B6D2 aGVHD model; 10 mg/kg intravenous, day 0, +3, +6): did not attenuate aGVHD and may have actually worsened clinical outcomes | dosages much better tolerated by irradiated recipients (B6 into B6D2 aGVHD model; irradiated recipients, 10 mg/kg excessively high): 0.5 to 2 mg/kg | donor cell numbers in the spleen [1]: did not produce any differences in donor monocyte, neutrophil, T cell, or B cell numbers | EBV infection, isolated pretreatment of target cells (Epstein Barr virus (EBV); 20 μg/ml pretreatment one hour, washed): reduced viral infection to a significant degree | EBV infectivity, compound present throughout (Epstein Barr virus (EBV); 20 μg/ml, Raji cells, 48 hours): significantly limited EBV infectivity | albumin avidity (serum albumin): high albumin avidity | viral cytopathic effect induced by herpes viruses [2]: block viral cytopathic effect | therapeutic index [3]: > 100 | aGVHD with CCR7-/- donor Tcons ([4]; Tcons incubated 15 μg/ml): completely inactive | aGVHD scores with CCR7-/- donor Tcons ([4]; Tcons incubated 30 μg/ml): trend for lower aGVHD scores | survival times with CCR7-/- donor Tcons ([4]; Tcons incubated 30 μg/ml): longer survival times | TNF and IFN-γ levels in the host colon (TNF and IFN-γ): significantly reduced | overall survival times [5, 6]: longest overall survival times | tumor growth [5, 6]: substantial suppression of tumor growth | mice died of aGVHD [5, 7]: 3/6 | mice succumbed to malignancy [5, 7]: none succumbed to malignancy | H9 cell migration in response to CCL19 (CCR7; 2 μM cosalane in upper chamber, 30 nM CCL19, 3.5 hours, vs DMSO): inhibited versus DMSO | H9 cell CCL21 driven chemotaxis (CCR7; 2 μM cosalane in upper chamber, 200 nM CCL21): reduced by cosalane, although this did not achieve statistical significance | H9 chemotaxis in response to CCL19 after pretreatment alone (CCR7; [8]): significantly reduced | H9 chemotaxis in response to CCL21 after pretreatment alone (CCR7; [8]): significantly reduced
